Four compounds from publication PMC10141620 (Viruses, 2023) can be followed below.

Several values for one entry are separate records, joined by “and”; a condition that tells them apart may be missing. Identical values can stand only once.

For orientation: IC50 means the point on the concentration scale where inhibition reaches its midpoint.

What all share (type): cell-based
The subject of assay [1] is SARS-CoV-2 Brazil (Gamma: K417T/E484K/N501Y) pseudovirus.
Assay [2] has as its system SARS-CoV-2 USA-WA1/2020 D614G pseudovirus.
Assay [3] deals with SARS-CoV-2 mutant (D614G) and variants of concern (VOC) pseudoviruses. Conditions: read-out: IC50, range over all variant pseudoviruses.

For `Cc1ccc2nc3s/c(=C/c4coc(-c5ccc(Cl)c(C(=O)O)c5)c4)c(=O)n3c2c1` [NBCoV35], the IC50 in assay [1] is 292 nM and 506 nM; in assay [2] it was 266 nM and 195 nM.
For `O=C(O)c1cc(-c2ccc(/C=c3\sc4nc(=O)c5c6c(sc5n4c3=O)CCCC6)o2)ccc1Cl` [NBCoV36], the IC50 in assay [3] is 181 to 1180 nM and 129 to 332 nM.
Regarding `Cc1cc(C)c2nc3s/c(=C\c4ccc(-c5ccc(Cl)c(C(=O)O)c5)o4)c(=O)n3c2c1` [NBCoV37], the concentration for half-maximal inhibition (IC50) was 82 to 267 nM and 42.5 to 311 nM in assay [3]; 311 nM and 157 nM in assay [2].
In the case of `Cc1cc2nc3s/c(=C/c4ccc(-c5cccc(C(=O)O)c5)o4)c(=O)n3c2cc1C` [NBCoV63], the IC50 in assay [3] was 34 to 96 nM and 26 to 105 nM; in assay [1] it was 45.5 nM and 77.5 nM; in assay [2], 42.5 nM and 40.8 nM.
